Experimental data from article PMC2628638, “Catalytic inhibition of topoisomerase II by a novel rationally designed ATP-competitive purine analogue” (BMC Chemical Biology, 2009).

How the values were obtained:
topoisomerase II alpha = topoisomerase II alpha (Homo sapiens, UniProt P11388); test: Affinity precipitation with biotinylated purine analogue 2 from HL-60 nuclear extracts; type: binding; set-up: endogenous in cells; host or cells: HL-60 nuclear extract; conditions: 1 μM biotinylated analogue 2; competitor in excess (10 μM), QAP 1 also at equimolar concentration
Description: Topoisomerase II α and β were affinity precipitated with biotinylated inhibitor as follows. Exponentially growing HL-60 cells were collected on ice and incubated with hypotonic buffer (10 mM HEPES pH 7.5, 1.5 mM MgCl2, 10 mM KCl, 0.5 mM DTT, 0.5 mM PMSF, 1× protease inhibitor cocktail (Complete Mini, Roche Diagnostics GmbH)) for 15 minutes, then 0.6% v/v NP-40 was added and cells were disrupted using a Dounce homogenizer. Lysates were transferred to 1.5 ml Protein LoBind Eppendorf tubes and nuclei were collected after centrifugation at 8000 rpm for 10 minutes and washed twice with hypotonic buffer. To extract and release chromatin associated topoisomerase II nuclei were incubated for 30 minutes in DNAse buffer (20 mM Tris HCl pH 7.5, 5 mM MgCl2, 1 mM CaCl2, 25 mM NaCl, 0.5 mM EDTA, 1% NP-40, 1 mM DTT, 1 × protease inhibitor cocktail, 0.1 mM PMSF) containing 40 U DNAse I (Roche Diagnostics GmbH) followed by addition of twice concentrated nuclear extraction buffer (20 mM HEPES pH 7.5, 3 mM MgCl2, 20 mM KCl, 50 mM β-glycerophosphate, 840 mM NaCl, 1 mM EDTA, 50 mM PNPP, 1 mM DTT, 1 mM PMSF) and rotation for 1 h in the coldroom. The soluble fraction was obtained following centrifugation at 13000 rpm for 15 minutes. 25 μg nuclear extract were used for the affinity precipitation. The salt concentration was adjusted to 150 mM with nuclear extraction buffer (without NaCl) and the sample volume was toped off to 200 μl with precipitation buffer (50 mM HEPES pH 7.4, 150 mM NaCl, 25 mM β-glycerophosphate, 25 mM NaF, 5 mM EGTA, 1 mM EDTA, 15 mM PPI, 1 mM PMSF). Compounds were preincubated for 30 minutes prior addition of biotinylated purine analogue 2 for 2 h. Streptavidin agarose beads (Novagen, 69203) were washed twice with PBS, blocked for 30 minutes with PBS containing 1% BSA, washed twice with PBS and finally with precipitation buffer. 40 μl equilibrated streptavidin agarose beads were added to the sample and incubation was continued for 1 h. Beads were pelleted by centrifugation at 7000 rpm for 5 minutes and washed thrice with precipitation buffer. During the last wash the beads were transferred to a new tube and the bound fraction was released by boiling for 5 minutes in Laemmli sample buffer. Topoisomerase II α and β were detected by Western blot as described below.

[1] = target: T1, purified human topoisomerase II alpha (Homo sapiens, UniProt P11388); test: DNA decatenation assay with purified enzyme (kDNA); type: biochemical; conditions: catenated kDNA, read-out: mean IC50, inhibition of DNA decatenation
T1 construct: screened in an ATPase assay using purified full length tagged human topoisomerase II alpha; made in house; host or cells: Sf21 insect cells, baculovirus (pFastBac1)
Description: (§1) Reagents for the assay were purchased from TopoGEN (catalog number 1001–1, TopoGEN, Inc., Port Orange, FL). Topoisomerase II was extracted according to the manufacturer's instructions from nuclei of HL-60 cells (ATCC; American Type Culture Collection, Manassas, Virginia, USA) and contained both isoforms as assessed by Western blotting. Calculation of specific topoisomerase II decatenation activity was based on complete decatenation of a given amount of catenated input DNA (100 ng kDNA) by a defined amount of nuclear extract containing the alpha and beta isoforms or of a defined amount of purified enzyme in a particular amount of time. The topoisomerase II activity from nuclei decatenated 0.07 ng catenated kDNA · min^-1 · ng^-1 extract. Purified topoisomerase II alpha (see above) decatenated 0.13 ng catenated kDNA · min^-1 · ng^-1. Vehicle (DMSO) or drug substance at concentrations to yield the desired end concentrations were added and samples were preincubated for 5 minutes at 37°C and 400 rpm in an Eppendorf thermomixer. Reactions were started by adding ATP (to 450 μM final concentration) to each sample and incubation was continued for 20 minutes. […] Gels were analyzed under a UV transilluminator and decatenated kDNA products were quantified using AlphaEaseFC (FluorChem 8900) image analysis software version 3.2.3 (Alpha Innotech, San Leandro, CA).

[2] = tested on: topoisomerase II from nuclear extracts of HL-60 cells; test: DNA decatenation assay with HL-60 nuclear extracts (kDNA); type: biochemical, human; conditions: catenated kDNA, 450 μM ATP, read-out: mean IC50, inhibition of DNA decatenation
Description: as §1

[3] = tested on: HCC1937 BRCA1 mutant and HCC1937 BRCA1 reconstituted cells; test: Clonogenic growth assay (WST-1, colony counting); type: cell-based
Description: HCC1937 BRCA1 mutant and HCC1937 BRCA1 reconstituted breast ductal carcinoma cells were cultured in RPMI-1640 medium supplemented with 10% fetal calf serum, 2 mM L-glutamine, 1 mM sodium pyruvate, 4.5 g/l glucose and 1% (v/v) penicillin/streptomycin. Status of BRCA1 was corroborated by immunoprecipitation using 50 μg nuclear extracts and 1 μg mouse monoclonal antibody MS110 (ab16780, Abcam Inc., Cambridge, MA), which is directed towards the amino-terminus of the protein. Blots were probed with BRCA1 carboxy-terminal specific mouse monoclonal antibody D9 (sc-6954, Santa Cruz Biotechnologies, Santa Cruz, CA) and, following stripping, re-probed with antibody MS110. For assays, 5000 cells in 3 ml medium were seeded per well of 6 well plates in duplicates. The day after, vehicle (DMSO) or compounds were added. After one week medium was exchanged and vehicle or compounds were re-added for an additional two days. To assess proliferation the medium in each well was replaced with 1 ml medium containing 100 μl WST-1 reagent and incubation for 20 minutes at 37°C. Of each sample 110 μl supernatant were transferred into a 96 well plate and the OD was read at 450 nm (filter at 630 nm) on a SpectraMax Plus microtiter plate reader using SoftMax Pro software (Molecular Devices). For background correction, the blank value consisted of 100 μl medium containing 10 μl WST-1. Thereafter, colonies were stained by removing medium, washing cells once with PBS and incubation with 1 ml crystal violet solution for 30 minutes at room temperature. Cells were washed twice with PBS and colonies were counted using an Artec Counter (Model 880, Artec, Dyntatech Laboratories Inc.) with diameter cut-off set to 0.2 mm. Data were expressed as growth or colony numbers relative to vehicle control treatments (100%).

Chain of topoisomerase II alpha (P11388 whole entry): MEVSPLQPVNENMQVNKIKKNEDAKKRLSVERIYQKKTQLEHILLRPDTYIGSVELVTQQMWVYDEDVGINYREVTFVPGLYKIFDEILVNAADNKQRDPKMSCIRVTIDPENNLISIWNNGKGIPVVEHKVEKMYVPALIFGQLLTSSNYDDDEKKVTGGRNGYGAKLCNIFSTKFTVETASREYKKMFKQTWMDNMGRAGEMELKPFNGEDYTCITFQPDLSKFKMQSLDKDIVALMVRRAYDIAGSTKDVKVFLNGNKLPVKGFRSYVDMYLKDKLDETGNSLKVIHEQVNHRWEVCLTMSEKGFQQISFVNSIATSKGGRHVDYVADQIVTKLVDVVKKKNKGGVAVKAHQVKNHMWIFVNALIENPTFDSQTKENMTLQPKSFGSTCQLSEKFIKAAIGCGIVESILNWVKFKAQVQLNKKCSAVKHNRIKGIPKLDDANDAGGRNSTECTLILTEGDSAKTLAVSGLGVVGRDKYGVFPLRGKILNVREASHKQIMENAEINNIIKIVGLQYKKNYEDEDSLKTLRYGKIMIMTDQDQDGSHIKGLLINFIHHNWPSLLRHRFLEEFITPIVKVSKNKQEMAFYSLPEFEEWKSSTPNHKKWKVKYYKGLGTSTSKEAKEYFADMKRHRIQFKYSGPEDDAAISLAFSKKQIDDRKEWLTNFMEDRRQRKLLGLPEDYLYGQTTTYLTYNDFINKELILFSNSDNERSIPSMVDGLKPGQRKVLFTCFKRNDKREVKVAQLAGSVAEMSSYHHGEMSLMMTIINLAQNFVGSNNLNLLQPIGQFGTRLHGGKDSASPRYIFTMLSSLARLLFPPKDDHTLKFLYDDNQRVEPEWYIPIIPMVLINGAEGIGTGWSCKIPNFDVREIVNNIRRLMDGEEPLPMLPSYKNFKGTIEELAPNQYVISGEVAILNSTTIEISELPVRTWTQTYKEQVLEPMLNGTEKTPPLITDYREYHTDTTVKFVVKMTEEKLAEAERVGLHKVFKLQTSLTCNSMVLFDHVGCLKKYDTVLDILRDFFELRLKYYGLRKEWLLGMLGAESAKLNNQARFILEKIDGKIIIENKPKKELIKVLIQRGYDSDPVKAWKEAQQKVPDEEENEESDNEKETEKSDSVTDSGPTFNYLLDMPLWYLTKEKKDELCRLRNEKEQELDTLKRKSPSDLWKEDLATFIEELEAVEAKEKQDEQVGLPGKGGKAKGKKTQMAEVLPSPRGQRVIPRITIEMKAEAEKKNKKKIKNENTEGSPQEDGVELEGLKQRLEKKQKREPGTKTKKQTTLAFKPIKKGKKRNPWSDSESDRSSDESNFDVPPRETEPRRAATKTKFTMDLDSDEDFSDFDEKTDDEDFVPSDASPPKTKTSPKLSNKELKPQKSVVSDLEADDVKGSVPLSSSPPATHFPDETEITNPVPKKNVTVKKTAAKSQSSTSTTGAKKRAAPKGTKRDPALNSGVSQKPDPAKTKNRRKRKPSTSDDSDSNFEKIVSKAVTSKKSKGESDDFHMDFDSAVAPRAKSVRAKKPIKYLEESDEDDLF
T1 sequence (P11388 whole entry): as above

In the case of `CCc1nc2nc(Nc3ccc4nc(OCCN5CCOCC5)ccc4c3)nc(NC(C)(C)C)c2[nH]1` [QAP 1], the “competition of the interaction of biotinylated purine analogue 2 with topoisomerase II alpha” value (topoisomerase II alpha) is reported as “abolished”, the IC50 [1] is reported as 660 nM and the IC50 [2] is reported as 770 nM. For the same compound, the “colony formation of BRCA1 mutant cells” value ([3]; 5 μM, 9 days) was “striking suppression” and the “sensitivity of BRCA1 mutant versus BRCA1 reconstituted HCC1937 cells” value ([3]; continuous treatment for 9 days, WST-1 and colony numbers) was “differential antiproliferative effect”.
